Results published in ChEMBL document CHEMBL1156632, “Enhanced antimalarial activity of novel synthetic aculeatin derivatives” (J Med Chem, 2008).

What was measured:
Plasmodium falciparum [1] = assay: Antimalarial activity against Plasmodium falciparum 3D7 in human erythrocytes after 48hrs by [3H]hypoxanthine uptake; format: functional, organism-based
Toxoplasma gondii = assay: Antitoxoplasmal activity against Toxoplasma gondii RH-beta1 in HFF cells assessed as beta-galactosidase activity after 48 to 72 hrs by colorimetric microtiter assay; format: functional, organism-based
K562 = assay: (§1) Cytotoxicity against human K562 cells assessed as radioactive thymidine incorporation after 24 hrs; format: cell-based; settings: k562, 24 h; for CC50: 24 h
[2] = Selectivity index, ratio of CC50 for human K562 cells to IC50 for Toxoplasma gondii RH-beta1; format: functional
Plasmodium falciparum [3] = assay: Antimalarial activity against Plasmodium falciparum K1; format: functional, organism-based
[4] = Selectivity index, ratio of CC50 for human K562 cells to IC50 for Plasmodium falciparum 3D7; format: functional
[5] = as §1; format: cell-based; settings: K562 cells
[6] = Toxoplasma gondii, RH-beta1, HFF

SMILES | IC50 (Plasmodium falciparum [1]; Plasmodium falciparum, 3D7) | IC50 (Toxoplasma gondii; [6]) | Activity (K562) | Selectivity Index [2] | IC50 (Plasmodium falciparum [1]) | IC50 (Plasmodium falciparum [3]) | CC50 (K562) | Selectivity Index [4] | CC50 at 24 h [5] | IC50 (Toxoplasma gondii; hff)
O=C1C=CC2(C=C1)CC[C@]1(CC(O)C[C@]3(CCC4(C=CC(=O)C=C4)O3)O1)O2 (some centres undefined) | 584 nM | 1500 nM | Toxic | 35 |  |  |  |  |  | 
CCCCCCCCCCCCC[C@@H]1C[C@H](O)C[C@@]2(CCC3(C=CC(=O)C=C3)O2)O1 |  | 309 nM |  |  | 288 nM | 180 nM | 25.5 µM |  |  | 
CCCCCCCCCCCCCC(=O)OC1C[C@]2(CCC3(C=CC(=O)C=C3)O2)O[C@]2(CCC3(C=CC(=O)C=C3)O2)C1 (some centres undefined) | 92 nM | 636 nM |  |  |  |  |  | 123 | 11.3 µM | 
CCCCCCCCCCCCCC(=O)O[C@@H]1C[C@]2(CCC3(C=CC(=O)C=C3)O2)O[C@]2(CCC3(C=CC(=O)C=C3)O2)C1 | 81 nM | 346 nM |  |  |  |  |  | 109 | 8.75 µM | 
CCCCCCCCCCCCCC(=O)CC(=O)O[C@@H]1C[C@]2(CCC3(C=CC(=O)C=C3)O2)O[C@]2(CCC3(C=CC(=O)C=C3)O2)C1 | 120 nM |  |  | 35 |  |  |  | 35 | < 0.38 µM | 
O=C1C=CC2(C=C1)CC[C@]1(C[C@@H](O)C[C@@]3(CCC4(C=CC(=O)C=C4)O3)O1)O2 | 414 nM | 173 nM |  | 35 |  |  |  | 35 | 0.39 µM | 
CCCCCCC(=O)O[C@@H]1C[C@]2(CCC3(C=CC(=O)C=C3)O2)O[C@]2(CCC3(C=CC(=O)C=C3)O2)C1 | 343 nM |  |  | 35 |  |  |  | 35 | < 0.38 µM | 
CCCCCCC(=O)OC1C[C@]2(CCC3(C=CC(=O)C=C3)O2)O[C@]2(CCC3(C=CC(=O)C=C3)O2)C1 (some centres undefined) | 331 nM |  |  | 35 |  |  |  |  | < 0.38 µM | 
CCCCCCCCCCCCC[C@@H](O)C[C@@H](O)CC(=O)CCc1ccc(O)cc1 | > 10000 nM |  |  |  |  |  |  | 35 | 34.5 µM | 
CCCCCCCCCCC(CCCCCCCCCC)OC(=O)C[C@H]1C[C@H](O)C[C@@]2(CCC3(C=CC(=O)C=C3)O2)O1 (racemic) | 1150 nM | 4450 nM |  | 35 |  |  |  | 35 | 22.1 µM | 
CCCCCCCCCCCCC[C@@H]1C[C@@H](O)C[C@]2(CCC3(CCC(=O)CC3)O2)O1 (racemic) | > 5000 nM | 11000 nM |  | 35 |  |  |  |  | 25.6 µM | 
CCCCCCCCCCCCCCCCCCOC(=O)C[C@H]1C[C@H](O)C[C@@]2(CCC3(C=CC(=O)C=C3)O2)O1 (racemic) | 770 nM | 2400 nM |  | 35 |  |  |  | 35 | 13.9 µM | 
CCCCCCCCCCCCCCCCCCOC(=O)C[C@H]1C[C@@H](O)C[C@]2(CCC3(C=CC(=O)C=C3)O2)O1 (racemic) | 1130 nM | 3520 nM |  | 35 |  |  |  | 35 | 15.6 µM | 
CCCCCCCCCCCCCCCCCCOC(=O)C[C@H]1C[C@@H](O)C[C@@]2(CCC3(C=CC(=O)C=C3)O2)O1 (racemic) | 1030 nM | 3540 nM |  | 35 |  |  |  | 35 | 17.5 µM | 
CCCOC(=O)C[C@H]1C[C@H](O)C[C@@]2(CCC3(C=CC(=O)C=C3)O2)O1 (racemic) | 1840 nM | 500 nM |  | 219 |  |  |  |  | 109 µM | 
CCCCCCN(CCCCCC)C(=O)C[C@H]1C[C@H](O)C[C@@]2(CCC3(C=CC(=O)C=C3)O2)O1 (racemic) | 899 nM |  |  | 35 |  |  |  | 35 | 0.39 µM | 
CCCCCCCCCCCCCC1C[C@H](O)CC2(CCC3(C=CC(=O)C=C3)O2)O1 (single isomer, unassigned) | 329 nM | 627 nM |  |  |  |  |  | 35 | 22.1 µM | 
CCCCCCCCCCCCCC1C[C@@H](O)CC2(CCC3(C=CC(=O)C=C3)O2)O1 (single isomer, unassigned) [ACULEATIN A] |  | 436 nM |  | 35 | 220 nM |  |  | 35 | 26.7 µM | 
CCCCCCCCCCCCC[C@@H]1CC(O)CC2(CCC3(C=CC(=O)C=C3)O2)O1 (single isomer, unassigned; form 1) [ACULEATINS B] |  |  |  |  | 451 nM |  | 30.2 µM |  |  | 377 nM
CCCCCCCCCCCCC[C@@H]1CC(O)CC2(CCC3(C=CC(=O)C=C3)O2)O1 (single isomer, unassigned; form 2) | 335 nM |  |  | 35 |  |  |  | 35 | 25.8 µM | 436 nM
CCCCCCCCCCCCC[C@@H]1CC(O)CC2(CCC3(C=CC(=O)C=C3)O2)O1 (single isomer, unassigned; form 3) [ACULEATINS B] | 366 nM | 400 nM |  | 35 |  |  |  | 35 | 30.8 µM | 
CCCCCCCCCCOC(=O)C[C@H]1C[C@H](O)C[C@@]2(CCC3(C=CC(=O)C=C3)O2)O1 (stereo in doubt) | 654 nM | 341 nM |  | 35 |  |  |  | 35 | 28.2 µM | 
CCCCCCCCCCOC(=O)C[C@@H]1C[C@@H](O)C[C@]2(CCC3(C=CC(=O)C=C3)O2)O1 (stereo in doubt) | 1360 nM | 1630 nM |  |  |  |  |  | 35 | 41.2 µM | 
CCCCCCCCCCCCC[C@H]1C[C@@H](O)C[C@]2(CCC3(C=CC(=O)C=C3)O2)O1 [(+)-ACULEATIN B] | 454 nM | 365 nM |  | 35 |  | 430 nM |  | 35 | 27.5 µM | 
CCCCCCCCCCCCC[C@@H]1C[C@@H](O)C[C@]2(CCC3(C=CC(=O)C=C3)O2)O1 [ACULEATIN A] |  |  |  |  | 478 nM | 1000 nM | 28 µM |  |  | 640 nM
CCN(CC)CCCC(C)Nc1ccnc2cc(Cl)ccc12 (centres undefined) [CHLOROQUINE] |  |  |  |  |  |  |  |  | 9.7 µM | 
